Experimental data: ChEMBL document CHEMBL1201862, “PubChem BioAssay data set” (2004)
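Cultured in 96-well plates, cells were exposed to test compound for 48 hours across five concentrations. GI50: concentration for 50% inhibition of growth.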 Activity calls are given as the source filed them. Rule as the data show it: active = GI50 up to about 1.1 µM and inactive = higher.

Assays:
Assay in all cases: growth of human tumour cells (NCI), 48 h
XF498 = test system: XF498
DLD-1 = test system: DLD-1
DMS-114 = test system: DMS-114
KM-20L2 = test system: KM-20L2
HOP-18 = test system: HOP-18
RXF 631 = test system: RXF 631
DMS-273 = test system: DMS-273
BT-549 = test system: BT-549
Hs-578T = test system: Hs-578T

For `Nc1nncc2c1c(Br)cn2C1OC(CO)C(O)C1O` (configuration not stated), the GI50 (XF498) was > 41.7 µM (inactive), the GI50 (DLD-1) was 4.82 µM (inactive) and the GI50 (DMS-114) was 9.35 µM (inactive). For the same molecule, the GI50 (KM-20L2) was 44 µM (inactive), the GI50 (HOP-18) was > 67.6 µM (inactive) and the GI50 (RXF 631) was 2.84 µM (inactive). For the same molecule, the GI50 (DMS-273) was 7.23 µM (inactive).

In the case of `Cc1ccc([N+](=O)[O-])cc1NC(=O)/C(CC(=O)c1sc(C(N)=S)nc1C)=N\N`, the GI50 (DLD-1) is reported as > 100 µM (inactive), the GI50 (DMS-114) is reported as 30.3 µM (inactive) and the GI50 (KM-20L2) is reported as > 100 µM (inactive). The GI50 (HOP-18) was 71.3 µM (inactive), the GI50 (RXF 631) was 31.5 µM (inactive) and the GI50 (DMS-273) was 29.7 µM (inactive).

For `COCCCNC(=O)CC(=O)NCCCOC`, the GI50 (DLD-1) was > 100 µM (inactive), the GI50 (DMS-114) was > 100 µM (inactive) and the GI50 (KM-20L2) was > 100 µM (inactive). The GI50 (HOP-18) was > 100 µM (inactive) and the GI50 (RXF 631) was > 100 µM (inactive).

For `CCOC(=O)N1N=NC2C3OC(C[C@@]3(C#N)OC(C)=O)[C@H]21` (some centres not stated), the GI50 (XF498) was > 100 µM (inactive), the GI50 (DLD-1) was > 100 µM (inactive) and the GI50 (KM-20L2) was > 100 µM (inactive). For the same molecule, the GI50 (HOP-18) was > 100 µM (inactive), the GI50 (RXF 631) was > 100 µM (inactive) and the GI50 (DMS-273) was > 100 µM (inactive).

With `CCNC(=O)O/N=C1\CCC2[C@@H]3CC=C4C[C@@H](OC5CCCCO5)CC[C@]4(C)C3CC[C@]12C` (some centres not stated) the GI50 (DLD-1) was 4.45 µM (inactive), the GI50 (DMS-114) was 1.26 µM (inactive) and the GI50 (KM-20L2) was 2.64 µM (inactive). For the same molecule, the GI50 (HOP-18) was 1.42 µM (inactive), the GI50 (RXF 631) was 2.75 µM (inactive) and the GI50 (DMS-273) was 1.52 µM (inactive).

In the case of `COC(=O)C(=O)C(CC(=O)Nc1c(C)cccc1C)C(=O)OC` (configuration not stated), the GI50 (XF498) is reported as > 100 µM (inactive), the GI50 (DLD-1) is reported as > 100 µM (inactive) and the GI50 (DMS-114) is reported as > 100 µM (inactive). For the same molecule, the GI50 (KM-20L2) was > 100 µM (inactive), the GI50 (HOP-18) was > 100 µM (inactive) and the GI50 (RXF 631) was > 100 µM (inactive).

For `C=C=C(Sc1ccccc1)C(C)(C)O`, the GI50 (XF498) was > 100 µM (inactive), the GI50 (DLD-1) was > 100 µM (inactive) and the GI50 (KM-20L2) was > 100 µM (inactive). For the same molecule, the GI50 (HOP-18) was > 100 µM (inactive) and the GI50 (RXF 631) was > 100 µM (inactive).

For `C=C[C@]1(C)CCC2=C(CCC3C2(C)CCC[C@]3(C)CO)C1` (some centres not stated), the GI50 (XF498) was 52.6 µM (inactive), the GI50 (DLD-1) was 50 µM (inactive) and the GI50 (DMS-114) was 31.2 µM (inactive). For the same molecule, the GI50 (KM-20L2) was 20.2 µM (inactive), the GI50 (HOP-18) was > 100 µM (inactive) and the GI50 (RXF 631) was 51.1 µM (inactive). The GI50 (DMS-273) was 41.8 µM (inactive).

For `Cc1c(Cl)cccc1NC(=O)/C(Cl)=C(\Cl)C(=O)O`, the GI50 (DLD-1) was 18.2 µM (inactive), the GI50 (DMS-114) was 21.2 µM (inactive) and the GI50 (KM-20L2) was 21.6 µM (inactive). For the same molecule, the GI50 (HOP-18) was 17.5 µM (inactive), the GI50 (RXF 631) was 24.8 µM (inactive) and the GI50 (DMS-273) was 20.9 µM (inactive).

With `COC(=O)C(Cc1ccccc1)NC(=O)Cn1ccnc1[N+](=O)[O-]` (configuration not stated) the GI50 (XF498) was > 100 µM (inactive), the GI50 (DMS-114) was > 100 µM (inactive) and the GI50 (KM-20L2) was > 100 µM (inactive). For the same molecule, the GI50 (HOP-18) was 67.8 µM (inactive), the GI50 (RXF 631) was > 100 µM (inactive) and the GI50 (DMS-273) was > 100 µM (inactive).

With `COCC(C#N)NC1CC(OC2CC(O)(C(=O)CO)Cc3c(O)c4c(c(O)c32)C(=O)c2c(OC)cccc2C4=O)OC(C)C1O` (configuration not stated) the GI50 (XF498) was 0.0427 µM (active), the GI50 (DLD-1) was 0.2 µM (active) and the GI50 (DMS-114) was 0.0361 µM (active). The GI50 (KM-20L2) was 0.191 µM (active), the GI50 (BT-549) was 0.138 µM (active) and the GI50 (Hs-578T) was 0.161 µM (active). The GI50 (HOP-18) was 0.125 µM (active), the GI50 (RXF 631) was 0.0716 µM (active) and the GI50 (DMS-273) was 0.0266 µM (active).

For `O=C(/C=C\c1ccccc1O)c1ccc(O)cc1O`, the GI50 (DLD-1) was > 100 µM (inactive), the GI50 (DMS-114) was > 100 µM (inactive) and the GI50 (KM-20L2) was > 100 µM (inactive). The GI50 (HOP-18) was 55.7 µM (inactive), the GI50 (RXF 631) was > 100 µM (inactive) and the GI50 (DMS-273) was > 100 µM (inactive).

With `O=C(Cc1ccccc1)N/N=C(/c1nc2ccc([N+](=O)[O-])cc2nc1O)C(O)c1ccc(C(O)/C(=N/NC(=O)Cc2ccccc2)c2nc3ccc([N+](=O)[O-])cc3nc2O)cc1` (configuration not stated) the GI50 (XF498) was 29.8 µM (inactive), the GI50 (DLD-1) was 56.8 µM (inactive) and the GI50 (DMS-114) was 4.29 µM (inactive). For the same molecule, the GI50 (KM-20L2) was 12.4 µM (inactive) and the GI50 (RXF 631) was 51.3 µM (inactive).

With `C/C(CC(=O)NC1=CC=C(NC(=O)C/C(C)=N\Nc2ccccc2)CC1)=N/Nc1ccccc1` the GI50 (XF498) was > 100 µM (inactive), the GI50 (DLD-1) was > 100 µM (inactive) and the GI50 (DMS-114) was > 100 µM (inactive). The GI50 (KM-20L2) was > 100 µM (inactive), the GI50 (HOP-18) was > 100 µM (inactive) and the GI50 (RXF 631) was 41.4 µM (inactive). For the same molecule, the GI50 (DMS-273) was 27 µM (inactive).
